# Data: patent US20230085307A1, “PYRIDAZINONE COMPOUND AND HERBICIDE” (NISSAN CHEMICAL CORPORATION, priority 2019, published 2023)
# System: oval-leafed pondweed
# Experiment: Test Example 1: herbicidal activity, application before weed generation under submerged conditions (Table 16, symbol C)
# Type: in vivo, oval-leafed pondweed (Monochoria vaginalis)
# Settings: 320 g/ha applied herbicide
# Summary of the method: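 Submerged Wagner pots (alluvial soil, 4 cm water) sown with weed seeds and planted with 2.5-leaf rice seedlings; emulsifiable concentrate diluted in water applied to water surface on sowing day. Held in greenhouse at 25-30 °C; injury scored 0-5 by herbicidal rate after three weeks.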
row,SMILES,Herbicidal effect on C: oval-leafed pondweed (grade 0-5)
1,CCOc1cc(F)ccc1-c1sc2ccc(F)cc2c1-c1c(O)c(C)nn(C)c1=O [2-084],2 (Herbicidal rate of 20% or more and less than 40%)

# System: Japanese bulrush
# Experiment: Test Example 2: herbicidal activity, application during weed generation under submerged conditions (Table 17, symbol B)
# Type: in vivo, Japanese bulrush (Schoenoplectus juncoides)
# Settings: AAH 320 g/ha; application during weed generation, submerged conditions
# Summary of the method: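 Steps: fill Wagner pots with alluvial soil; add water to give 4 cm depth; sow the species mixed; grow under glass at 25–30° C.; at 1–2 leaves apply water-diluted emulsion formulation to the water surface at a fixed herbicide amount; score after 3 weeks.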
row,SMILES,"herbicidal effect rating, B: Japanese bulrush"
1,CCOc1cc(F)ccc1-c1sc2ccc(F)cc2c1-c1c(O)c(C)nn(C)c1=O [2-084],1 (Herbicidal rate of 5% or more and less than 20%)

# System: southern crabgrass
# Experiment: Test Example 4: herbicidal effect by soil treatment (Table 19, symbol F)
# Type: in vivo, southern crabgrass (Digitaria ciliaris)
# Settings: 320 g/ha
# Summary of the method: (§1)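 Three weeks of greenhouse growth at 25° C. to 30° C. followed a uniform surface spray of water-diluted emulsion at a predetermined herbicide amount. Seeds had been sown beforehand under about 1.5 cm of sterilized diluvial soil. Grading followed criteria set out in an earlier test.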
row,SMILES,"herbicidal effect rating, F: southern crabgrass"
1,CCOc1cc(F)ccc1-c1sc2ccc(F)cc2c1-c1c(O)c(C)nn(C)c1=O [2-084],5 (Herbicidal rate of 90% or more (almost completely withered))

# System: green foxtail
# Experiment: Test Example 4: herbicidal effect by soil treatment (Table 19, symbol G)
# Type: in vivo, green foxtail (Setaria viridis)
# Settings: 320 g/ha
# Summary of the method: as §1
row,SMILES,"herbicidal effect rating, G: green foxtail"
1,CCOc1cc(F)ccc1-c1sc2ccc(F)cc2c1-c1c(O)c(C)nn(C)c1=O [2-084],4 (Herbicidal rate of 70% or more and less than 90%)

# System: barnyard grass
# Experiment: Test Example 4: herbicidal effect by soil treatment (Table 19, symbol H)
# Type: in vivo, barnyard grass (Echinochloa crus-galli)
# Settings: 320 g/ha
# Summary of the method: as §1
row,SMILES,"herbicidal effect rating, H: barnyard grass"
1,CCOc1cc(F)ccc1-c1sc2ccc(F)cc2c1-c1c(O)c(C)nn(C)c1=O [2-084],4 (Herbicidal rate of 70% or more and less than 90%)

# System: wild oat
# Experiment: Test Example 4: herbicidal effect by soil treatment (Table 19, symbol I)
# Type: in vivo, wild oat (Avena fatua)
# Settings: 320 g/ha
# Summary of the method: as §1
row,SMILES,"herbicidal effect rating, I: wild oat"
1,CCOc1cc(F)ccc1-c1sc2ccc(F)cc2c1-c1c(O)c(C)nn(C)c1=O [2-084],2 (Herbicidal rate of 20% or more and less than 40%)

# System: blackgrass
# Experiment: Test Example 4: herbicidal effect by soil treatment (Table 19, symbol J)
# Type: in vivo, blackgrass (Alopecurus myosuroides)
# Settings: 320 g/ha
# Summary of the method: as §1
row,SMILES,"herbicidal effect rating, J: blackgrass"
1,CCOc1cc(F)ccc1-c1sc2ccc(F)cc2c1-c1c(O)c(C)nn(C)c1=O [2-084],2 (Herbicidal rate of 20% or more and less than 40%)

# System: velvetleaf
# Experiment: Test Example 4: herbicidal effect by soil treatment (Table 19, symbol M)
# Type: in vivo, velvetleaf (Abutilon theophrasti)
# Settings: 320 g/ha
# Summary of the method: as §1
row,SMILES,"herbicidal effect rating, M: velvetleaf"
1,CCOc1cc(F)ccc1-c1sc2ccc(F)cc2c1-c1c(O)c(C)nn(C)c1=O [2-084],3 (Herbicidal rate of 40% or more and less than 70%)

# System: lambsquarters
# Experiment: Test Example 4: herbicidal effect by soil treatment (Table 19, symbol O)
# Type: in vivo, lambsquarters (Chenopodium album)
# Settings: 320 g/ha
# Summary of the method: as §1
row,SMILES,"herbicidal effect rating, O: lambsquarters"
1,CCOc1cc(F)ccc1-c1sc2ccc(F)cc2c1-c1c(O)c(C)nn(C)c1=O [2-084],5 (Herbicidal rate of 90% or more (almost completely withered))

# System: chickweed
# Experiment: Test Example 4: herbicidal effect by soil treatment (Table 19, symbol P)
# Type: in vivo, common chickweed (Stellaria media)
# Settings: 320 g/ha
# Summary of the method: as §1
row,SMILES,"herbicidal effect rating, P: chickweed"
1,CCOc1cc(F)ccc1-c1sc2ccc(F)cc2c1-c1c(O)c(C)nn(C)c1=O [2-084],4 (Herbicidal rate of 70% or more and less than 90%)

# System: persian speedwell
# Experiment: Test Example 4: herbicidal effect by soil treatment (Table 19, symbol R)
# Type: in vivo, Persian speedwell (Veronica persica)
# Settings: 320 g/ha
# Summary of the method: as §1
row,SMILES,"herbicidal effect rating, R: persian speedwell"
1,CCOc1cc(F)ccc1-c1sc2ccc(F)cc2c1-c1c(O)c(C)nn(C)c1=O [2-084],5 (Herbicidal rate of 90% or more (almost completely withered))

# System: Italian ryegrass
# Experiment: Test Example 5: herbicidal effect by foliage application, plastic box (Table 20, symbol K)
# Type: in vivo, Italian ryegrass (Lolium multiflorum)
# Settings: foliage application, 320 g/ha, evaluated three weeks after application
# Summary of the method: (§2)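 Plants sown in sterilized diluvial soil and grown 14 days in a greenhouse at 25° C to 30° C, then sprayed on the foliage with the compound's emulsion diluted in water to a predetermined herbicide amount. Injury to weeds and crops scored three weeks after application on a visual rating scale.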
row,SMILES,herbicidal effect on K: Italian ryegrass
1,CCOc1cc(F)ccc1-c1sc2ccc(F)cc2c1-c1c(O)c(C)nn(C)c1=O [2-084],3 (Herbicidal rate of 40% or more and less than 70%)

# System: windgrass
# Experiment: Test Example 5: herbicidal effect by foliage application, plastic box (Table 20, symbol L)
# Type: in vivo, windgrass (Apera spica-venti)
# Settings: foliage application, 320 g/ha, evaluated three weeks after application
# Summary of the method: as §2
row,SMILES,herbicidal effect on L: windgrass
1,CCOc1cc(F)ccc1-c1sc2ccc(F)cc2c1-c1c(O)c(C)nn(C)c1=O [2-084],4 (Herbicidal rate of 70% or more and less than 90%)

# System: velvetleaf
# Experiment: Test Example 5: herbicidal effect by foliage application, plastic box (Table 20, symbol M)
# Type: in vivo, velvetleaf (Abutilon theophrasti)
# Settings: foliage application, 320 g/ha, evaluated three weeks after application
# Summary of the method: as §2
row,SMILES,herbicidal effect on M: velvetleaf
1,CCOc1cc(F)ccc1-c1sc2ccc(F)cc2c1-c1c(O)c(C)nn(C)c1=O [2-084],5 (Herbicidal rate of 90% or more (almost completely withered))

# System: redroot pigweed
# Experiment: Test Example 5: herbicidal effect by foliage application, plastic box (Table 20, symbol N)
# Type: in vivo, redroot pigweed (Amaranthus retroflexus)
# Settings: foliage application, 320 g/ha, evaluated three weeks after application
# Summary of the method: as §2
row,SMILES,herbicidal effect on N: redroot pigweed
1,CCOc1cc(F)ccc1-c1sc2ccc(F)cc2c1-c1c(O)c(C)nn(C)c1=O [2-084],5 (Herbicidal rate of 90% or more (almost completely withered))

# System: lambsquarters
# Experiment: Test Example 5: herbicidal effect by foliage application, plastic box (Table 20, symbol O)
# Type: in vivo, lambsquarters (Chenopodium album)
# Settings: foliage application, 320 g/ha, evaluated three weeks after application
# Summary of the method: as §2
row,SMILES,herbicidal effect on O: lambsquarters
1,CCOc1cc(F)ccc1-c1sc2ccc(F)cc2c1-c1c(O)c(C)nn(C)c1=O [2-084],3 (Herbicidal rate of 40% or more and less than 70%)

# System: chickweed
# Experiment: Test Example 5: herbicidal effect by foliage application, plastic box (Table 20, symbol P)
# Type: in vivo, common chickweed (Stellaria media)
# Settings: foliage application, 320 g/ha, evaluated three weeks after application
# Summary of the method: as §2
row,SMILES,herbicidal effect on P: chickweed
1,CCOc1cc(F)ccc1-c1sc2ccc(F)cc2c1-c1c(O)c(C)nn(C)c1=O [2-084],5 (Herbicidal rate of 90% or more (almost completely withered))
